Literature values in PubChem BioAssay AID1259409 (Chemical Carcinogenesis Research Information System (CCRIS), 2018).

Test system: rodent chemically induced tumor inhibition, incidence and multiplicity
Assay: CCRIS tumor inhibitor studies

## CCOC(=O)/C=C\C(=O)OCC
Carcinogen: BUTYLATED HYDROXYANISOLE, 25013-16-5, Dose [Inhibitor]: 0, 0.2% IN DIET SIMULTANEOUSLY WITH CARCINOGEN FOR 104 WK (STUDY DURATION: 104 WK), Route [Inhibitor]: ORAL, Species: RAT, Strain/Sex: F344/MALE, Target Tissue: Type of Lesion: FORESTOMACH: PAPILLOMA, Dose [Carcinogen]: 2% IN DIET FOR 104 WK, Promoter: NONE USED
  tumour outcome (control, treated, inhibition, significance): 88%, 27%, 69%, p<0.01
Carcinogen: BUTYLATED HYDROXYANISOLE, 25013-16-5, Dose [Inhibitor]: 0, 0.2% IN DIET SIMULTANEOUSLY WITH CARCINOGEN FOR 104 WK (STUDY DURATION: 104 WK), Route [Inhibitor]: ORAL, Species: RAT, Strain/Sex: F344/MALE, Target Tissue: Type of Lesion: FORESTOMACH: SQUAMOUS CELL CARCINOMA, Dose [Carcinogen]: 2% IN DIET FOR 104 WK, Promoter: NONE USED
  tumour outcome (control, treated, inhibition, significance): 20%, 5%, 75%, not calculated
Carcinogen: N-BUTYL-N-(4-HYDROXYBUTYL)NITROSAMINE, 3817-11-6, Dose [Inhibitor]: 0, 0.15% IN DRINKING WATER FOR 31 WK BEGINNING POST CARCINOGEN DOSE (STUDY DURATION: 36 WK), Route [Inhibitor]: ORAL, Species: RAT, Strain/Sex: F344/MALE, Target Tissue: Type of Lesion: URINARY BLADDER: CARCINOMA, Dose [Carcinogen]: 0.05% IN DRINKING WATER FOR 4 WK, Promoter: BUTYLATED HYDROXYANISOLE, 25013-16-5
  tumour outcome (control, treated, inhibition, significance): 5/15 (33%), 2/15 (13%), 61%, not significant
Carcinogen: N-BUTYL-N-(4-HYDROXYBUTYL)NITROSAMINE, 3817-11-6, Dose [Inhibitor]: 0, 0.15% IN DRINKING WATER FOR 31 WK BEGINNING POST CARCINOGEN DOSE (STUDY DURATION: 36 WK), Route [Inhibitor]: ORAL, Species: RAT, Strain/Sex: F344/MALE, Target Tissue: Type of Lesion: URINARY BLADDER: PAPILLOMA, Dose [Carcinogen]: 0.05% IN DRINKING WATER FOR 4 WK, Promoter: BUTYLATED HYDROXYANISOLE, 25013-16-5
  tumour outcome (control, treated, inhibition, significance): 8/15 (53%), 10/15 (67%), -26%, not significant
Carcinogen: N-BUTYL-N-(4-HYDROXYBUTYL)NITROSAMINE, 3817-11-6, Dose [Inhibitor]: 0, 0.15% IN DRINKING WATER FOR 31 WK BEGINNING POST CARCINOGEN DOSE (STUDY DURATION: 36 WK), Route [Inhibitor]: ORAL, Species: RAT, Strain/Sex: F344/MALE, Target Tissue: Type of Lesion: URINARY BLADDER: PAPILLOMA, Dose [Carcinogen]: 0.05% IN DRINKING WATER FOR 4 WK, Promoter: SODIUM BICARBONATE, 144-55-8
  tumour outcome (control, treated, inhibition, significance): 9/15 (60%), 9/15 (60%), 0%, not significant
Carcinogen: N-METHYL-N'-NITRO-N-NITROSOGUANIDINE, 70-25-7, Dose [Inhibitor]: 0, 0.2% IN DIET BEGINNING 1 WK POST CARCINOGEN DOSE AND CONTINUING FOR 51 WK (STUDY DURATION: 52 WK), Route [Inhibitor]: ORAL, Species: RAT, Strain/Sex: F344/MALE, Target Tissue: Type of Lesion: FORESTOMACH: CARCINOMA, Dose [Carcinogen]: 150 MG/KG ONCE, Promoter: BUTYLATED HYDROXYANISOLE, 25013-16-5
  tumour outcome (control, treated, inhibition, significance): 5/14 (36%), 0/14 (0%), 100%, p<0.05
Carcinogen: N-METHYL-N'-NITRO-N-NITROSOGUANIDINE, 70-25-7, Dose [Inhibitor]: 0, 0.2% IN DIET BEGINNING 1 WK POST CARCINOGEN DOSE AND CONTINUING FOR 51 WK (STUDY DURATION: 52 WK), Route [Inhibitor]: ORAL, Species: RAT, Strain/Sex: F344/MALE, Target Tissue: Type of Lesion: FORESTOMACH: PAPILLOMA, Dose [Carcinogen]: 150 MG/KG ONCE, Promoter: BUTYLATED HYDROXYANISOLE, 25013-16-5
  tumour outcome (control, treated, inhibition, significance): 14/14 (100%), 11/14 (79%), 21%, not calculated
Carcinogen: N-METHYL-N'-NITRO-N-NITROSOGUANIDINE, 70-25-7, Dose [Inhibitor]: 0, 0.2% IN DIET BEGINNING 1 WK POST CARCINOGEN DOSE AND CONTINUING FOR 51 WK (STUDY DURATION: 52 WK), Route [Inhibitor]: ORAL, Species: RAT, Strain/Sex: F344/MALE, Target Tissue: Type of Lesion: FORESTOMACH: SARCOMA, Dose [Carcinogen]: 150 MG/KG ONCE, Promoter: BUTYLATED HYDROXYANISOLE, 25013-16-5
  tumour outcome (control, treated, inhibition, significance): 1/14 (7%), 4/14 (29%), -314%, not calculated
Carcinogen: N-METHYL-N'-NITRO-N-NITROSOGUANIDINE, 70-25-7, Dose [Inhibitor]: 0, 0.2% IN DIET BEGINNING 1 WK POST CARCINOGEN DOSE AND CONTINUING FOR 51 WK (STUDY DURATION: 52 WK), Route [Inhibitor]: ORAL, Species: RAT, Strain/Sex: F344/MALE, Target Tissue: Type of Lesion: FORESTOMACH: SQUAMOUS CELL CARCINOMA, Dose [Carcinogen]: 150 MG/KG ONCE, Promoter: BUTYLATED HYDROXYANISOLE, 25013-16-5
  tumour outcome (control, treated, inhibition, significance): 14/14 (100%), 5/14 (36%), 64%, p<0.001

## Cc1c(C)c2c(c(C)c1O)CCC(C)(CCCC(C)CCCC(C)CCCC(C)C)O2 (stereo not given)
Carcinogen: N-NITROSOMETHYLBENZYLAMINE, 937-40-6, Dose [Inhibitor]: 30, 172 MG/KG IN DIET BEGINNING POST CARCINOGEN TREATMENT AND CONTINUING FOR 22 WK (STUDY DURATION: 25 WK), Route [Inhibitor]: ORAL, Species: MOUSE, Strain/Sex: C57BL/FEMALE, Target Tissue: Type of Lesion: ESOPHAGUS: TUMOR, Dose [Carcinogen]: 0.2 MG/KG IN CORN OIL 3/WK FOR 3 WK, Promoter: ETHANOL, 64-17-5
  tumour outcome (control, treated, inhibition, significance): 10/17 (59%), 6/16 (38%), 36%, not calculated
Carcinogen: N-NITROSOMETHYLBENZYLAMINE, 937-40-6, Dose [Inhibitor]: 30, 172 MG/KG IN DIET BEGINNING POST CARCINOGEN TREATMENT AND CONTINUING FOR 22 WK (STUDY DURATION: 25 WK), Route [Inhibitor]: ORAL, Species: MOUSE, Strain/Sex: C57BL/FEMALE, Target Tissue: Type of Lesion: ESOPHAGUS: TUMOR, Dose [Carcinogen]: 0.2 MG/KG IN CORN OIL 3/WK FOR 3 WK, Promoter: NONE USED
  tumour outcome (control, treated, inhibition, significance): 6/15 (40%), 3/15 (20%), 50%, not calculated
Carcinogen: UVB IRRADIATION, Dose [Inhibitor]: 0, 25 MG IN 200 µL ACETONE 3/WK FOR DURATION OF STUDY BEGINNING 3 WK PRIOR TO IRRADIATION (STUDY DURATION: 33 WK), Route [Inhibitor]: DERMAL, Species: MOUSE, Strain/Sex: C3H/HEN/FEMALE, Target Tissue: Type of Lesion: SKIN: TUMOR, Dose [Carcinogen]: 6 J/M2/SEC 30 MIN/D, 5 D/WK FOR 27 WK, Promoter: NONE USED
  tumour outcome (control, treated, inhibition, significance): 81%, 42%, 48%, p=0.0065

## CCCCCCCCCCCCN=C=S
Carcinogen: 4(METHYLNITROSAMINO)-1-(3-PYRIDYL)-1-BUTANONE, 64091-91-4, Dose [Inhibitor]: 0, 1 UMOL IN 0.1 ML CORN OIL ONCE 2 HR PRIOR TO CARCINOGEN DOSE (STUDY DURATION: 16 WK), Route [Inhibitor]: GAVAGE, Species: MOUSE, Strain/Sex: STRAIN-A/FEMALE, Target Tissue: Type of Lesion: LUNG: ADENOMA, Dose [Carcinogen]: 10 UMOL IN 0.1 ML SALINE ONCE, Promoter: NONE USED
  tumour outcome (control, treated, inhibition, significance): 100%, 35%, 65%, p<0.001
Carcinogen: 4-(METHYLNITROSAMINO)-1-(3-PYRIDYL)-1-BUTANONE, 64091-91-4, Dose [Inhibitor]: 0, 1 UMOL ONCE 2 HR PRIOR TO CARCINOGEN DOSE (STUDY DURATION: 16 WK), Route [Inhibitor]: GAVAGE, Species: MOUSE, Strain/Sex: STRAIN-A/FEMALE, Target Tissue: Type of Lesion: LUNG: ADENOMA, Dose [Carcinogen]: 10 UMOL IN 0.1 ML SALINE ONCE, Promoter: NONE USED
  tumour outcome (control, treated, inhibition, significance): 100%, 35%, 65%, p<0.05
Carcinogen: 4-(METHYLNITROSAMINO)-1-(3-PYRIDYL)-1-BUTANONE, 64091-91-4, Dose [Inhibitor]: 0, 5 UMOL ONCE 2 HR PRIOR TO CARCINOGEN DOSE (STUDY DURATION: 16 WK), Route [Inhibitor]: GAVAGE, Species: MOUSE, Strain/Sex: STRAIN-A/FEMALE, Target Tissue: Type of Lesion: LUNG: ADENOMA, Dose [Carcinogen]: 10 UMOL IN 0.1 ML SALINE ONCE, Promoter: NONE USED
  tumour outcome (control, treated, inhibition, significance): 100%, 25%, 75%, p<0.05
